Holding throughout (format): in vivo
Series [1] is described as follows: Body weight of mice during experiments (high energy feed + STZ diabetic model). The conditions noted are these: Sample 10 mg/kg i.p., Positive control 22.5 mg/kg intragastric, 1 time/day. The text has this:
3.2.1 C57BL/6 mice are more commonly used in diabetes tests. 90 C57BL/6 male mice (SPF level) with a body weight of 18.8-24.2 g at the beginning of the experiment were purchased from Guangdong Medical Laboratory Animal Center (Experimental Animal Production License No. SCXK (Yue) 2018-0002; Animal Certificate No. 44007200059759);
(§1) After each group was given a maintenance feed for 1 week, except for the negative control group, the other groups were replaced with the high energy feed from 3.1.7.1. After 3 weeks of feeding, each group was fasted for 24 h. Except for the negative control group, the other groups were intraperitoneally injected with 5 mg/mL STZ solution at a dose of 20 mL/kg bodyweight. All groups were fed for 4 days. Fasting blood glucose and glucose tolerance were measured on the 5th day, and the test was terminated the next day.
(§2) From the feeding of the maintenance feed, the sample group was intraperitoneally injected with the test sample solution once per day at 20 mL/kg bodyweight, the negative control group and the model control group were intraperitoneally injected with sodium chloride solution, and the positive control group was intragastrically administered with pioglitazone hydrochloride solution at a dose of 20 mL/kg bodyweight for 34 days until the end of the test. On the day of injection of STZ, each group was administered 4 h after STZ injection.
Weighed at the beginning of the trial, at the end of the trial, and once a week during the trial.

Series [2] relates to C57BL/6 male mice, high energy feed + STZ diabetic model. As to the kind of experiment: Fasting blood glucose index. As to the method: as §1, §2
On the 5th day after intraperitoneal injection of STZ, the mice in each group were fasted for about 5 hours with water provided. After measuring the fasting blood glucose level (0 h), the sample group and positive control group were intraperitoneally injected with the corresponding drugs. The negative control group and the model control group were intraperitoneally injected with sodium chloride solution. After 20 minutes, each group was intragastrically administered with 0.125 g/mL glucose solution at 20 mL/kg bodyweight, and the blood glucose level was measured at 0.5, 1, 1.5, 2 h after the administration of the glucose solution. On the next day, the mice in each group were fasted for 5 h after the administration. The mice were anesthetized with 3% sodium pentobarbital solution in an amount of 10 mL/kg bodyweight, and sacrificed after collecting the eyeballs and bloods. The blood samples were centrifuged at 3000 r/min for 10 min, and the sera were collected for the detection of serum insulin, triglycerides, and total cholesterol. […]

Series [3] has the same test system. The series can be described thus: Glucose tolerance index. The settings on record: Sample 10 mg/kg, Positive control 22.5 mg/kg. How it is done: as §1, §2
On the 5th day after intraperitoneal injection of STZ, the mice in each group were fasted for about 5 hours with water provided. After measuring the fasting blood glucose level (0 h), the sample group and positive control group were intraperitoneally injected with the corresponding drugs. The negative control group and the model control group were intraperitoneally injected with sodium chloride solution. After 20 minutes, each group was intragastrically administered with 0.125 g/mL glucose solution at 20 mL/kg bodyweight, and the blood glucose level was measured at 0.5, 1, 1.5, 2 h after the administration of the glucose solution. On the next day, the mice in each group were fasted for 5 h after the administration. The mice were anesthetized with 3% sodium pentobarbital solution in an amount of 10 mL/kg bodyweight, and sacrificed after collecting the eyeballs and bloods. The blood samples were centrifuged at 3000 r/min for 10 min, and the sera were collected for the detection of serum insulin, triglycerides, and total cholesterol. At the same time, the pancreas of each animal was collected. Six animals in each group were fixed with 10% paraformaldehyde for HE staining and insulin immunohistochemical staining in pancreas. The remaining 6 animals were preserved at −80° C. for insulin content determination.
Calculate the area under the blood glucose curve at 0, 0.5, 1, 1.5, 2 h after glucose administration. The formula is as follows:
Area under the blood glucose curve: [(0 h blood glucose+0.5 h blood glucose)×0.5]/2+[(0.5 h blood glucose+1 h blood glucose)×0.5]/2+[(1 h blood glucose+1.5 h) Blood glucose level)×0.5]/2+[(1.5 h blood glucose level+2 h blood glucose value)×0.5]/2.

The test system is the same in series [4]. The series can be described thus: Serum cholesterol (TC) and triglyceride (TG) content. The settings on record: serum at end of experiment; Sample 10 mg/kg, Positive control 22.5 mg/kg. As to the method:
(§3) After each group was given a maintenance feed for 1 week, except for the negative control group, the other groups were replaced with the high energy feed from 3.1.7.1. After 3 weeks of feeding, each group was fasted for 24 h. Except for the negative control group, the other groups were intraperitoneally injected with 5 mg/mL STZ solution at a dose of 20 mL/kg bodyweight. All groups were fed for 4 days. Fasting blood glucose and glucose tolerance were measured on the 5th day, and the test was terminated the next day. […]
(§4) On the 5th day after intraperitoneal injection of STZ, the mice in each group were fasted for about 5 hours with water provided. […] After 20 minutes, each group was intragastrically administered with 0.125 g/mL glucose solution at 20 mL/kg bodyweight, and the blood glucose level was measured at 0.5, 1, 1.5, 2 h after the administration of the glucose solution. […]
(§5) At the end of the experiment, serum was collected for assaying serum insulin, triglycerides, and total cholesterol. The insulin resistance index was calculated.

Series [5] has the same test system. As to the kind of experiment: Serum insulin content. The settings on record: end of experiment; Sample 10 mg/kg, Positive control 22.5 mg/kg. How it is done: as §3, §4, §5
The test system is the same in series [6]. As to the kind of experiment: Pancreatic insulin content (ELISA). The conditions noted are these: end of experiment, Sample 10 mg/kg, Positive control 22.5 mg/kg. How it is done: as §1
From the feeding of the maintenance feed, the sample group was intraperitoneally injected with the test sample solution once per day at 20 mL/kg bodyweight, the negative control group and the model control group were intraperitoneally injected with sodium chloride solution, and the positive control group was intragastrically administered with pioglitazone hydrochloride solution at a dose of 20 mL/kg bodyweight for 34 days until the end of the test. […]
as §4
Background: In an ELISA, binding on a coated surface is turned into a signal by an enzyme label.

Where a name gives a salt, the structure may show the parent alone.

Turning to `CCc1ccc(CCOc2ccc(CC3SC(=O)NC3=O)cc2)nc1` (stereo not shown) [Positive control, Pioglitazone hydrochloride], the Bodyweight is on record as 22.2 ± 1.2 g in series [1] (d 2); 23.0 ± 1.3 g in series [1] (d 9); 24.2 ± 1.2 g in series [1] (d 16); 25.6 ± 1.5 g in series [1] (d 23); 26.2 ± 1.6 g in series [1] (d 29); 26.0 ± 1.4 g in series [1] (d 32). Also, the Bodyweight in series [1] (d 35) is on record as 25.8 ± 1.3 g. In addition, in series [2] (5th day after STZ, fasting about 5 h, Sample 10 mg/kg i.p., Positive control 22.5 mg/kg intragastric, 1 time/day), the “Fasting blood glucose index, Post experiment” value was determined as 13.8 ± 2.8 mmol/L. Moreover, the “Decrease percentage of blood glucose” value in series [2] ((prior − post)/prior × 100%, Sample 10 mg/kg i.p., Positive control 22.5 mg/kg intragastric) is recorded as −21.8 ± 39.0%. Besides, in series [2] (prior to experiment (baseline), fasting about 5 h), the “Fasting blood glucose index, Prior to Experiment” value turned out to be 12.0 ± 2.6 mmol/L. Also, the “Glucose tolerance index, blood glucose” value in series [3] (0 h, 5th day after STZ) is reported as 13.8 ± 2.8 mmol/L; in series [3] (0.5 h after glucose administration) it was 30.1 ± 5.4 mmol/L; in series [3] (1 h after glucose administration), 26.9 ± 7.0 mmol/L; in series [3] (1.5 h after glucose administration), 20.7 ± 6.2 mmol/L; in series [3] (2 h after glucose administration) it was 17.9 ± 6.3 mmol/L. Besides, the TC in series [4] is on record as 4.76 ± 0.56 mmol/L. Moreover, the TG in series [4] is listed as 0.76 ± 0.14 mmol/L. In addition, the serum insulin content in series [5] was 28.2 ± 3.6 mIU/mL. For the same compound, the pancreatic insulin content in series [6] worked out at 8.4 ± 3.0 mIU/mL.

Source of the values: patent publication US12310985B2, “Composition and method for treatment of diabetes” (SHENZHEN PROFOUND VIEW PHARMACEUTICAL TECHNOLOGY, priority 2020, dated 2025).
